Data on twelve compounds can be found in patent US20100160255A1, “SPIRO-CYCLIC COMPOUND” (Takeda Pharmaceutical Company Limited, priority 2005, published 2010).

In general, pIC50 refers to the negative decadic logarithm of the IC50, by convention in mol/L.

Experiment [1] has as its target T1, human ACC1 (Homo sapiens, UniProt Q13085).
T1 construct: made in house; host or cells: SF-9 insect cells, recombinant baculovirus BAC-ACC1
The experiment is described as follows: ACC1 inhibitory activity (malachite green absorbance assay, recombinant enzyme). The experiment is classed as biochemical. As for the experimental part:
The ACC1 inhibitory activity of the compound of the present invention was evaluated by the following method.
Human ACC1 gene was cloned by PCR using human liver cDNA library (Clontech) as a template, and Primer 1 and Primer 2 shown below. Primer 1 and Primer 2 were prepared by adding recognition sequence of restriction enzymes SalI and NotI based on the information of the base sequence (Genbank Accession U19822) of human ACC1 gene.
PCR was performed using Pyrobest DNA polymerase (TAKARA BIO INC.). The obtained PCR product was cloned to pT7 Blue vector (Novagen) which was, after confirmation of the base sequence, digested with restriction enzymes SalI and NotI. The obtained DNA fragment was inserted into pFAST-BacHTc (Invitrogen) digested with restriction enzymes SalI and NotI to give expression plasmid ACC1/pFAST-BacHTc.
Using the expression plasmid and BAC-TO-BAC Baculovirus Expression System (Invitrogen), virus stock BAC-ACC1 of recombinant Baculovirus was prepared.
SF-9 cells (Invitrogen) were sown at 1×10^6 cells/mL to insect cell culture medium (1 L, Sf-900II SFM medium (Invitrogen) containing 10% fetal bovine serum (Trace), 50 mg/L gentamicin (Invitrogen) and 0.1% Pluronic F-68 (Invitrogen)), and shaking culture was performed using a 2 L volume Erlenmeyer flask at 27° C., 100 rpm.
After culturing for 24 hr, the recombinant Baculovirus BAC-ACC1 (10 mL) was added, and the mixture was further cultured for 3 days. The culture medium was centrifuged at 1000×g for 5 min to give virus-infected cells. The infected cells were washed with phosphate buffered saline (Invitrogen) and centrifuged under the same conditions, and the obtained cells were cryopreserved at −80° C.
The cryopreserved cells were thawed in ice, suspended in 25 mM HEPES buffer (100 mL, pH 7.5) containing 10% Glycerol, 0.13 M NaCl, 1 mM EDTA, 25 mM sodium β-glycerophosphate, 1 mM sodium orthovanadate, added with Complete Protease Inhibitor (Boehringer). The obtained suspension was homogenized 3 times with a Polytron homogenizer (Kinematica) at 20,000 rpm for 30 seconds. The obtained cell disrupt solution was clarified by centrifugation at 185700×g for 50 min and filtrated using a 0.45 μm filter. The filtrate was passed through a column packed with Ni-NTA Super Flow Gel (QIAGEN, 12 mL) at a flow rate of about 5 mL/min. The column was washed with buffer A (50 mM HEPES containing 0.3M NaCl, pH 7.5), further washed with buffer A containing 20 mM Imidazole, and eluted with buffer A containing 100 mM Imidazole. The eluate was concentrated with Vivaspin 20 (Vivascience) having a molecular weight cut off of 30 K. The obtained concentrate was dialyzed using Sephadex G-25 (Amersham Bioscience K.K., 358 mL) equilibrated with 50 mM HEPES (pH7.5) containing 10 mM MgCl2, 2 mM dithiothreitol, 10 mM tripotassium citrate and 0.3M NaCl. The dialysate was concentrated with Vivaspin 20 (Vivascience) having a molecular weight cut off of 30 K and the concentrate was filtered through a 0.22 μm filter to give ACC1. The obtained ACC1 was cryopreserved at −80° C.
ACC1 (0.93 mg/ml) obtained in (2) above was diluted to a concentration of 8 μg/ml with an enzyme reaction buffer (50 mM HEPES (pH7.5), 10 mM MgCl2, 10 mM tripotassium citrate, 2 mM dithiothreitol, 0.75 mg/ml fatty acid free BSA), and added to each well of a 384 well assay plate (Nunc 265196) by 10 μl. […]

Experiment [2] deals with T2, human ACC2 (Homo sapiens, UniProt O00763).
T2 construct: made in house; host or cells: SF-9 insect cells, recombinant baculovirus BAC-ACC2(Nd)
T2 sequence (O00763 117-2458 limits assumed): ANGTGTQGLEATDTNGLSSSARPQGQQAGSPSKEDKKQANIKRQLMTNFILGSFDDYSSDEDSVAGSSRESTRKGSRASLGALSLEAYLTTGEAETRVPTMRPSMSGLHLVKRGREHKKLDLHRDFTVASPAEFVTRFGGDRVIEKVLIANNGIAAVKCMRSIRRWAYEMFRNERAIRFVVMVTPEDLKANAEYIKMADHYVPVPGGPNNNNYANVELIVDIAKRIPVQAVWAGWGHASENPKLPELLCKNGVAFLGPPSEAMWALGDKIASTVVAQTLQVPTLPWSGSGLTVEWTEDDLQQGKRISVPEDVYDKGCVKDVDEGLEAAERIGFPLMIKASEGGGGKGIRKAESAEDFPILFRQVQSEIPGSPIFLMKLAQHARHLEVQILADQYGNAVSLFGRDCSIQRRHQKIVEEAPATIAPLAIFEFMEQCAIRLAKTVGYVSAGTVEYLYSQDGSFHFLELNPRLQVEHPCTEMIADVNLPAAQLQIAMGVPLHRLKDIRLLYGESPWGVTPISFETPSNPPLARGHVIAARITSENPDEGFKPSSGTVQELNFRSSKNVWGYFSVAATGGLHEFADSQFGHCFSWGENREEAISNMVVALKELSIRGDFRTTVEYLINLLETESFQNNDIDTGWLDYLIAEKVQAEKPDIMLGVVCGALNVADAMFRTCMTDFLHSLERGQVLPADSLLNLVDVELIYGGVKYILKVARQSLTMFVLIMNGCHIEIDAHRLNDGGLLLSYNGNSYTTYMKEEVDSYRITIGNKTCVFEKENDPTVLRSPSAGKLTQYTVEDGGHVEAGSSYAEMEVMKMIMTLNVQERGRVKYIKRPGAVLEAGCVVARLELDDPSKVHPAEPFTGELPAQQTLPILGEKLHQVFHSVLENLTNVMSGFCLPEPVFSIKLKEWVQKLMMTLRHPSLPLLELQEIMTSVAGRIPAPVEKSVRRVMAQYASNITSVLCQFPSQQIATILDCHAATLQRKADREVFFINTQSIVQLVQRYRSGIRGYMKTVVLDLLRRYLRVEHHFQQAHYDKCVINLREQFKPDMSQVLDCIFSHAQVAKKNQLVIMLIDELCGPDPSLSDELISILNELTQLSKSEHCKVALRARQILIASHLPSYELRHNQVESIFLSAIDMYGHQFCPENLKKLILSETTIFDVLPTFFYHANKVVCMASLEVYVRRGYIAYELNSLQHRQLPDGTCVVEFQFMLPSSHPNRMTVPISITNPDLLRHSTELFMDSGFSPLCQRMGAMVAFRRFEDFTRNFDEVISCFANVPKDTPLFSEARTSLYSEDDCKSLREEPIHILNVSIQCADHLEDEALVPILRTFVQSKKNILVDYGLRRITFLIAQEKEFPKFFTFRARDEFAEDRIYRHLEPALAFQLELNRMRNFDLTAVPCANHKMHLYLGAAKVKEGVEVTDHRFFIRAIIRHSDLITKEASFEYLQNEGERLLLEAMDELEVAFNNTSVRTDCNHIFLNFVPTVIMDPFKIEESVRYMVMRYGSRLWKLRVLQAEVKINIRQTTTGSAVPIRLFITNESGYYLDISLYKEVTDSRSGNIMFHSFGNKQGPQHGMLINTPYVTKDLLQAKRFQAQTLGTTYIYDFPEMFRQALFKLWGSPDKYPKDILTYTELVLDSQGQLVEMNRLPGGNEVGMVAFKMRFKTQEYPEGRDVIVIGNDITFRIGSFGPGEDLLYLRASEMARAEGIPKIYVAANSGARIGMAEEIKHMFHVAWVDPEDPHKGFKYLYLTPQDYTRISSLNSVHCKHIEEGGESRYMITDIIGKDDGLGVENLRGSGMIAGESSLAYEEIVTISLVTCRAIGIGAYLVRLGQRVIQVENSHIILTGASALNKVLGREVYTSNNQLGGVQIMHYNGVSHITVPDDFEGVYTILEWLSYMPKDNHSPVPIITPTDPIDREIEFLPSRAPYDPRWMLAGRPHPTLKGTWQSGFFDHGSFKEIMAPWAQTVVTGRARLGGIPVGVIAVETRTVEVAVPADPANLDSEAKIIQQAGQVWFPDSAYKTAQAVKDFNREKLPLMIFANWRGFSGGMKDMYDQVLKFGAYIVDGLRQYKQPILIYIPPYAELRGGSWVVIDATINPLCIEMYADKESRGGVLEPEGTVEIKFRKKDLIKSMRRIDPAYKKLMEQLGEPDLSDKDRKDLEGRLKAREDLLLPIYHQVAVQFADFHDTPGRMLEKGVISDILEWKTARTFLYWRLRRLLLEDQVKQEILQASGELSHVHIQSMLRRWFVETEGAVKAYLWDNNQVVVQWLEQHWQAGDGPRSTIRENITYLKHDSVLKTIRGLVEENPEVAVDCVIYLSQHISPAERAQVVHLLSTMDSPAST
The experiment is described as follows: ACC2 inhibitory activity (malachite green absorbance assay, recombinant ACC2(Nd)). The experiment is classed as biochemical. As for the experimental part:
The ACC2 inhibitory activity of the compound of the present invention was evaluated by the following method.
Human ACC2 gene was cloned by PCR using human skeletal muscle cDNA library (Clontech) as a template, and Primer 1 and Primer 2 shown below. Primer 1 and Primer 2 were prepared by adding recognition sequence of restriction enzymes SalI and XbaI based on the information of the base sequence (Genbank Accession U89344) of human ACC2 gene.
PCR was performed using Pyrobest DNA polymerase (TAKARA BIO INC.). The obtained PCR product was cloned to pT7 Blue vector (Novagen) which was, after confirmation of the base sequence, digested with restriction enzymes SalI and XbaI. The obtained DNA fragment was inserted into pFAST-BacHTa (Invitrogen) digested with restriction enzymes SalI and XbaI to give expression plasmid ACC2/pFAST-BacHTa.
A plasmid for expression of ACC2 free of mitochondrial targeting sequence was prepared by PCR using the expression plasmid as a template, and Primer 3 and Primer 4 shown below.
PCR was performed using Pyrobest DNA polymerase (TAKARA BIO INC.). The obtained PCR product was cloned to pT7 Blue vector (Novagen) which was, after confirmation of the base sequence, digested with restriction enzymes SalI and AflII. The obtained DNA fragment was inserted into pFAST-BacHTa (Invitrogen) digested with restriction enzymes SalI and AflII to give expression plasmid ACC2mito7/pFAST-BacHTa.
Using the expression plasmid and BAC-TO-BAC Baculovirus Expression System (Invitrogen), virus stock BAC-ACC2 of recombinant Baculovirus (N terminal deletion (hereinafter Nd)) was prepared.
SF-9 cells (Invitrogen) were sown at 0.5×10^6 cells/mL to insect cell culture medium (2 L, Sf-900II SFM medium (Invitrogen) containing 10% fetal bovine serum (Trace), 50 mg/L gentamicin (Invitrogen) and 0.1% Pluronic F-68 (Invitrogen)), and shaking culture was performed using a Wave Bioreactor (Wave) under the conditions of 27° C., 20 rpm, rocking angle of 6° and oxygen concentration of 30%.
On day 4 of the culture, 3 L of an insect cell culture medium was added, the rocking angle was set to 8°, and the cells were further cultured. On day 5 of the culture, the recombinant Baculovirus BAC-ACC2(Nd) (100 mL) was added, 5 L of the insect cell culture medium was further added, the rocking angle was set to 11°, and the cells were cultured for 3 days. The culture medium was centrifuged at 1000×g for 10 min to give virus-infected cells. The infected cells were washed with phosphate buffered saline (Invitrogen) and centrifuged under the same conditions, and the obtained cells were cryopreserved at −80° C.
The cryopreserved cells were thawed in ice, suspended in 25 mM HEPES buffer (900 mL, pH 7.5) containing 10% Glycerol, 0.13 M NaCl, 1 mM EDTA, 25 mM sodium β-glycerophosphate, 1 mM sodium orthovanadate, added with Complete Protease Inhibitor (Boehringer). The obtained suspension was homogenized 3 times with a Polytron homogenizer (Kinematica) at 20,000 rpm for 30 seconds. The obtained cell disrupt solution was clarified by centrifugation at 31000×g for 60 min and filtrated using a 0.45 μm filter. The filtrate was passed through a column packed with Ni-NTA Super Flow Gel (QIAGEN, 60 mL) at a flow rate of about 5 mL/min. The column was washed with buffer A (50 mM HEPES containing 0.3M NaCl, pH 7.5), further washed with buffer A containing 20 mM Imidazole, and eluted with buffer A containing 100 mM Imidazole. The eluate was concentrated with Vivaspin 20 (Vivascience) having a molecular weight cut off of 30 K. The obtained concentrate was dialyzed against 50 mM HEPES (pH7.5) containing 10 mM MgCl2, 2 mM dithiothreitol, 10 mM tripotassium citrate and 0.3M NaCl. The dialysate was filtered through a 0.22 μm filter to give ACC2(Nd). The obtained ACC2(Nd) was cryopreserved at −80° C. […]

The mark [3] stands for this setting: Table 8, recombinant human ACC1, 30° C., absorbance 620 nm, read-out: IC50 (ACC1 inhibitory activity).
Where [4] appears, read: Table 9, recombinant human ACC2(Nd), N terminal deletion, 30° C., absorbance 620 nm, read-out: IC50 (ACC2 inhibitory activity).
[5] abbreviates: Experimental Example 3, same manner as Experimental Example 1, read-out: IC50 values (ACC1 inhibitory activity).
[6] abbreviates: Experimental Example 4, same manner as Experimental Example 2, read-out: IC50 values (ACC2 inhibitory activity).

pIC50: −log10 of the molar value. Read-outs that look alike come from different tables or passages of the source. Bounds are passed on as bounds.

Take `CCNC(=O)Nc1sc2ccccc2c1C(=O)N1CCC(N2CCCC3(C2)OC(=O)N(CC)C3=O)CC1` (racemic) [Example 228, N-ethyl-N′-(3-{[4-(3-ethyl-2,4-dioxo-1-oxa-3,7-diazaspiro[4.5]dec-7-yl)piperidin-1-yl]carbonyl}-1-benzothien-2-yl)urea]: the values for the pIC50 in experiment [1] (setting [3]) and in experiment [2] (setting [4]) were 6.72 and 7.39, respectively.

Turning to `CCNC(=O)Nc1sc2ccccc2c1C(=O)N1CCC(N2CCCC3(C2)N=C(C)N(CC)C3=O)CC1` (racemic) [Example 233, 1-ethyl-3-(3-{[4-(3-ethyl-2-methyl-4-oxo-1,3,7-triazaspiro[4.5]dec-1-en-7-yl)piperidin-1-yl]carbonyl}-1-benzothien-2-yl)urea], the pIC50 in experiment [1] (setting [3]) is 6.96; in experiment [2] (setting [4]) it was 7.77.

Regarding `CCN1C(=O)CC2(CCCN(C3CCN(C(=O)c4c(NC(N)=O)sc5ccccc45)CC3)C2)C1=O` (racemic) [Example 240, 1-(3-{[4-(2-ethyl-1,3-dioxo-2,7-diazaspiro[4.5]dec-7-yl)piperidin-1-yl]carbonyl)-1-benzothien-2-yl)urea], the pIC50 is 6.46 in experiment [1] (setting [3]) and 7.64 in experiment [2] (setting [4]).

Regarding `CCNC(=O)Nc1sc2ccccc2c1C(=O)N1CCC(N2CCCC3(CCN(CC)C3=O)C2)CC1` (racemic) [Example 321, N-ethyl-N′-(3-{[4-(2-ethyl-1-oxo-2,7-diazaspiro[4.5]dec-7-yl)piperidin-1-yl]carbonyl}-1-benzothien-2-yl)urea], the pIC50 was 6.44 in experiment [1] (setting [3]) and 7.47 in experiment [2] (setting [4]).

Turning to `CCNC(=O)Nc1sc2ccccc2c1C(=O)N1CCC(N2CCCC3(C2)CC(C)(C)OC3=O)CC1` (single isomer, unassigned) [Example 319, N-(3-{[4-(3,3-Dimethyl-1-oxo-2-oxa-7-azaspiro[4.5]dec-7-yl)piperidin-1-yl]carbonyl}-1-benzothien-2-yl)-N′-ethylurea], the pIC50 was at least 7.00 in experiment [1] (setting [5]), 7.52 in experiment [1] (setting [3]), at least 8.00 in experiment [2] (setting [6]) and 8.30 in experiment [2] (setting [4]).

In the case of `CCN1CCC2(CCCN(C3CCN(C(=O)c4c5ccccc5cc5ccccc45)CC3)C2)C1=O` (centres unmarked) [Example 1, 7-[1-(9-anthrylcarbonyl)piperidin-4-yl]-2-ethyl-2,7-diazaspiro[4.5]decan-1-one], the pIC50 in experiment [1] (setting [3]) is 5.72; in experiment [2] (setting [4]) it was 6.85.

As to `CCNC(=O)Nc1sc2ccccc2c1C(=O)N1CCC(N2CCCC3(C2)CC(C)(C)OC3=O)CC1` (centres unmarked) [Example 36, N-(3-{[4-(3,3-Dimethyl-1-oxo-2-oxa-7-azaspiro[4.5]dec-7-yl)piperidin-1-yl]carbonyl}-1-benzothien-2-yl)-N′-ethylurea], the negative logarithm of the IC50 (pIC50) is at least 7.00 in experiment [1] (setting [5]), 7.10 in experiment [1] (setting [3]), at least 8.00 in experiment [2] (setting [6]) and 8.10 in experiment [2] (setting [4]).

Regarding `CC1(C)CC2(CCCN(C3CCN(C(=O)c4cc(-c5cccnc5)nc5ccccc45)CC3)C2)C(=O)O1` (centres unmarked) [Example 92, 3,3-dimethyl-7-{1-[(2-(pyridin-3-yl)quinolin-4-yl)carbonyl]piperidin-4-yl}-2-oxa-7-azaspiro[4.5]decan-1-one], the pIC50 was 5.32 in experiment [1] (setting [3]) and 6.96 in experiment [2] (setting [4]).

Take `CC(=O)c1cccc(-c2cc(C(=O)N3CCC(N4CCCC5(C4)CC(C)(C)OC5=O)CC3)cc(-c3cccnc3)c2)c1` (centres unmarked) [Example 133, 7-{1-[(3′-acetyl-5-(pyridin-3-yl)biphenyl-3-yl)carbonyl]piperidin-4-yl]-3,3-dimethyl-2-oxa-7-azaspiro[4.5]decan-1-one]: the pIC50 was 5.48 in experiment [1] (setting [3]) and 6.92 in experiment [2] (setting [4]).

`CC1(C)CC2(CN(C3CCN(C(=O)c4c5ccccc5cc5ccccc45)CC3)CCN2)C(=O)O1` (centres unmarked) [Example 153, 9-[1-(9-anthrylcarbonyl)piperidin-4-yl]-3,3-dimethyl-2-oxa-6,9-diazaspiro[4.5]decan-1-one]: the pIC50 in experiment [1] (setting [3]) is 5.80; in experiment [2] (setting [4]) it was 7.12.

With `CCNC(=O)Nc1sc(-c2ccccn2)cc1C(=O)N1CCC(N2CCCC3(C2)CC(C)(C)OC3=O)CC1` (centres unmarked) [Example 179, 1-(3-{[4-(3,3-dimethyl-1-oxo-2-oxa-7-azaspiro[4.5]dec-7-yl)piperidin-1-yl]carbonyl}-5-(pyridin-2-yl)-2-thienyl)-3-ethylurea], the pIC50 was at least 7.00 in experiment [1] (setting [5]), 6.85 in experiment [1] (setting [3]), at least 8.00 in experiment [2] (setting [6]) and 8.05 in experiment [2] (setting [4]).

Consider `CCNC(=O)Nc1sc(-c2ccc(C(=O)O)cc2)cc1C(=O)N1CCC(N2CCCC3(C2)CC(C)(C)OC3=O)CC1` (centres unmarked) [Example 190, 4-(4-{[4-(3,3-dimethyl-1-oxo-2-oxa-7-azaspiro[4.5]dec-7-yl)piperidin-1-yl]carbonyl}-5-[(ethylcarbamoyl)amino]-2-thienyl)benzoic acid], for which the pIC50 was at least 7.00 in experiment [1] (setting [5]), 7.10 in experiment [1] (setting [3]), at least 8.00 in experiment [2] (setting [6]) and 8.05 in experiment [2] (setting [4]).
